Measured values: patent US8163771B2, “11 β-HSD1 modulators” (Exelixis, Inc., priority 2008, dated 2012)

Each compound was assayed against T1, recombinant human 11 β-HSD1 (Homo sapiens, UniProt P28845) (assay: 11 β-HSD1 SPA Assay (Scintillation Proximity Assay)).
T1 construct: made in house; host or cells: E. coli
T1 sequence (P28845 whole entry): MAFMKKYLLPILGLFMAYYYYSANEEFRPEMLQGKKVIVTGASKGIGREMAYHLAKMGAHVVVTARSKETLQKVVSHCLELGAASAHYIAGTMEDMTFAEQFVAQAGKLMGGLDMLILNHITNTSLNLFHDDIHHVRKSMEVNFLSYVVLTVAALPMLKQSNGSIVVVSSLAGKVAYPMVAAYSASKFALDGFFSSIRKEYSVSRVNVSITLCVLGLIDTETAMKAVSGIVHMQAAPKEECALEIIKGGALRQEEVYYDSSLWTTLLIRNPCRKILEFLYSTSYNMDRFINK
Type: biochemical
In short: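 Scintillation proximity read-out of cortisol formed from 40 nM [3H]cortisone by purified recombinant human enzyme (30-100 nM, E. coli) with 1 mM NADPH, pH7.4, 2 hours at room temperature; beads with cortisol antibody and glycyrrhetinic acid stop the reaction, read next day. IC50 derived from inhibition normalised to background and maximal wells.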
`CC(C)(Oc1cc(F)c(F)cc1Cl)C(=O)N[C@H]1C[C@H]2CC[C@@H](C1)N2c1ccc(C(=O)NCC(F)(F)F)cn1` [Example 75, 6-[3-endo-({2-[(2-chloro-4,5-difluorophenyl)oxy]-2-methylpropanoyl}amino)-8-azabicyclo[3.2.1]oct-8-yl]-N-(2,2,2-trifluoroethyl)pyridine-3-carboxamide] was tested, and the IC50 was < 200 nM. In the case of `O=C(Nc1ccc(N2[C@@H]3CC[C@H]2C[C@@H](NC(=O)C2(c4ccc(Cl)cc4)CC2)C3)nc1)C1CC1` [Example 59, 1-(4-chlorophenyl)-N-(8-{5-[(cyclopropylcarbonyl)amino]pyridin-2-yl}-8-azabicyclo[3.2.1]oct-3-endo-yl)cyclopropanecarboxamide], the IC50 is reported as < 200 nM. In the case of `CC(C)(Oc1cc(F)ccc1C(F)(F)F)C(=O)N[C@H]1C[C@H]2CC[C@@H](C1)N2c1ccc(C(=O)NCC(F)(F)F)cn1` [Example 319, 6-{3-endo-[(2-{[5-fluoro-2-(trifluoromethyl)phenyl]oxy}-2-methylpropanoyl)amino]-8-azabicyclo[3.2.1]oct-8-yl}-N-(2,2,2-trifluoroethyl)pyridine-3-carboxamide], the IC50 is reported as < 200 nM. `CC(C)(Oc1ccc(Cl)cc1S(N)(=O)=O)C(=O)N[C@H]1C[C@H]2CC[C@@H](C1)N2c1ccc(C(=O)NCC(F)(F)F)cn1` [Example 388, 6-(3-endo-{[2-(4-chloro-2-sulfamoylphenoxy)-2-methylpropanoyl]amino}-8-azabicyclo[3.2.1]oct-8-yl)-N-(2,2,2-trifluoroethyl)pyridine-3-carboxamide] was tested, and the IC50 was < 2000 nM. With `CC(C)(Oc1ccc(Cl)cc1Cl)C(=O)N[C@H]1C[C@H]2CC[C@@H](C1)N2c1ccc(C(=O)NC2CCSCC2)cn1` [Example 380, 6-(3-endo-{[2-(2,4-dichlorophenoxy)-2-methylpropanoyl]amino}-8-azabicyclo[3.2.1]oct-8-yl)-N-(tetrahydro-2H-thiopyran-4-yl)pyridine-3-carboxamide] the IC50 was < 200 nM. With `CC(C)(Oc1ccc(F)c(F)c1)C(=O)N[C@H]1C[C@H]2CC[C@@H](C1)N2c1ccc(S(C)(=O)=O)cc1` [Example 209, 2-[(3,4-difluorophenyl)oxy]-2-methyl-N-{8-[4-(methylsulfonyl)phenyl]-8-azabicyclo[3.2.1]oct-3-endo-yl}propanamide] the IC50 was < 2000 nM. For `C[C@@H](NC(=O)c1ccc(N2C3CCC2CC(NC(=O)C(C)(C)Oc2ccc(Cl)cc2C(F)(F)F)C3)nc1)C(F)(F)F` (stereo partly drawn) [Example 412, 6-(3-endo-(2-(4-chloro-2-(trifluoromethyl)phenoxy)-2-methylpropanamido)-8-azabicyclo[3.2.1]octan-8-yl)-N-((R)-1,1,1-trifluoropropan-2-yl)nicotinamide], the IC50 was < 200 nM. With `CC(C)(Oc1ccc(F)cc1C(F)(F)F)C(=O)N[C@H]1C[C@H]2CC[C@@H](C1)N2c1ccc(S(N)(=O)=O)cn1` [Example 177, N-{8-[5-(aminosulfonyl)pyridin-2-yl]-8-azabicyclo[3.2.1]oct-3-endo-yl}-2-{[4-fluoro-2-(trifluoromethyl)phenyl]oxy}-2-methylpropanamide] the IC50 was < 200 nM. In the case of `CC(C)(Oc1cc(CC(=O)O)c(Cl)cc1Cl)C(=O)N[C@H]1C[C@H]2CC[C@@H](C1)N2c1ccc(C(=O)NCC(F)(F)F)cn1` [Example 444, [2,4-dichloro-5-({2-methyl-1-oxo-1-[(8-{5-[(2,2,2-trifluoroethyl)carbamoyl]pyridin-2-yl}-8-azabicyclo[3.2.1]oct-3-endo-yl)amino]propan-2-yl}oxy)phenyl]acetic acid], the IC50 is reported as < 200 nM. For `CC(C)(Oc1ccc(F)c(F)c1)C(=O)N[C@H]1C[C@H]2CC[C@@H](C1)N2c1ccc(C(=O)NCC(F)(F)F)cn1` [Example 78, 6-[3-endo-({2-[(3,4-difluorophenyl)oxy]-2-methylpropanoyl}amino)-8-azabicyclo[3.2.1]oct-8-yl]-N-(2,2,2-trifluoroethyl)pyridine-3-carboxamide], the IC50 was < 200 nM. In the case of `CC(C)(Oc1ccc(Cl)cc1Cl)C(=O)N[C@H]1C[C@H]2CC[C@@H](C1)N2c1ccc(C(=O)NC2CC2)cc1` [Example 132, N-cyclopropyl-4-[3-endo-({2-[(2,4-dichlorophenyl)oxy]-2-methylpropanoyl}amino)-8-azabicyclo[3.2.1]oct-8-yl]benzamide], the IC50 is reported as < 200 nM. With `CS(=O)(=O)c1ccc(N2[C@@H]3CC[C@H]2C[C@@H](NC(=O)C2(c4ccc(F)c(C(F)(F)F)c4)CC2)C3)nc1` [Example 280, 1-[4-fluoro-3-(trifluoromethyl)phenyl]-N-{8-[5-(methylsulfonyl)pyridin-2-yl]-8-azabicyclo[3.2.1]oct-3-endo-yl}cyclopropanecarboxamide] the IC50 was < 2000 nM. For `CC(C)(Oc1ccc(C(F)(F)F)cc1)C(=O)N[C@H]1C[C@H]2CC[C@@H](C1)N2c1ccc(C(=O)NCC(F)(F)F)cn1` [Example 111, 6-{3-endo-[(2-methyl-2-{[4-(trifluoromethyl)phenyl]oxy}propanoyl)amino]-8-azabicyclo[3.2.1]oct-8-yl}-N-(2,2,2-trifluoroethyl)pyridine-3-carboxamide], the IC50 was < 200 nM. In the case of `CC(C)(Oc1ccc(F)cc1S(C)(=O)=O)C(=O)N[C@H]1C[C@H]2CC[C@@H](C1)N2c1ccc(S(N)(=O)=O)cn1` [Example 298, N-{8-[5-(aminosulfonyl)pyridin-2-yl]-8-azabicyclo[3.2.1]oct-3-endo-yl}-2-{[4-fluoro-2-(methylsulfonyl)phenyl]oxy}-2-methylpropanamide], the IC50 is reported as < 2000 nM. For `CC(C)(Oc1ccc(Cl)cc1S(C)(=O)=O)C(=O)NC1CC2CCC(C1)N2c1ccc(C(=O)NC2CC2(F)F)cn1` (stereo not drawn) [Example 357, 6-[3-endo-({2-[4-chloro-2-(methylsulfonyl)phenoxy]-2-methylpropanoyl}amino)-8-azabicyclo[3.2.1]oct-8-yl]-N-(2,2-difluorocyclopropyl)pyridine-3-carboxamide], the IC50 was < 200 nM. With `CC(C)(Oc1ccc(Cl)cc1Cl)C(=O)NC1CC2CCC(C1)N2c1ccc(C(=O)N2CC[C@@H](O)C2)cn1` (stereo partly drawn) [Example 461, 2-(2,4-dichlorophenoxy)-n-[8-(5-{[(3r)-3-hydroxypyrrolidin-1-yl]carbonyl}pyridin-2-yl)-8-azabicyclo[3.2.1]oct-3-endo-yl]-2-methylpropanamide] the IC50 was < 200 nM. For `C[C@H](NC(=O)c1ccc(N2C3CCC2CC(NC(=O)C(C)(C)Oc2ccc(C(F)F)cc2Cl)C3)nc1)C(F)(F)F` (stereo partly drawn) [Example 453, 6-[3-endo-({2-[2-chloro-4-(difluoromethyl)phenoxy]-2-methylpropanoyl}amino)-8-azabicyclo[3.2.1]oct-8-yl]-N-[(2S)-1,1,1-trifluoropropan-2-yl]pyridine-3-carboxamide], the IC50 was < 200 nM. In the case of `C[C@H](NC(=O)c1ccc(N2C3CCC2CC(NC(=O)C(C)(C)Oc2cc(F)c(Cl)cc2Cl)C3)nc1)C(F)(F)F` (stereo partly drawn) [Example 425, 6-(3-endo-{[2-(2,4-dichloro-5-fluorophenoxy)-2-methylpropanoyl]amino}-8-azabicyclo[3.2.1]oct-8-yl)-N-[(2S)-1,1,1-trifluoropropan-2-yl]pyridine-3-carboxamide], the IC50 is reported as < 200 nM. With `CC(C)(Oc1ccc(F)cc1S(C)(=O)=O)C(=O)N[C@H]1C[C@H]2CC[C@@H](C1)N2c1ccc(C(=O)NCC(F)(F)F)cn1` [Example 296, 6-{3-endo-[(2-{[4-fluoro-2-(methylsulfonyl)phenyl]oxy}-2-methylpropanoyl)amino]-8-azabicyclo[3.2.1]oct-8-yl}-N-(2,2,2-trifluoroethyl)pyridine-3-carboxamide] the IC50 was < 200 nM. With `CC(C)(Oc1c(Cl)cc(F)cc1C(F)(F)F)C(=O)N[C@H]1C[C@H]2CC[C@@H](C1)N2c1ccc(S(C)(=O)=O)cn1` [Example 179, 2-{[2-chloro-4-fluoro-6-(trifluoromethyl)phenyl]oxy}-2-methyl-N-{8-{5-(methylsulfonyl)pyridin-2-yl]-8-azabicyclo[3.2.1]oct-3-endo-yl}propanamide] the IC50 was < 200 nM. `CC(C)(Oc1cc(F)c(F)cc1F)C(=O)N[C@H]1C[C@H]2CC[C@@H](C1)N2c1ccc(S(C)(=O)=O)cc1` [Example 234, 2-methyl-N-{8-[4-(methylsulfonyl)phenyl]-8-azabicyclo[3.2.1]oct-3-endo-yl}-2-[(2,4,5-trifluorophenyl)oxy]propanamide] was tested, and the IC50 was < 2000 nM. In the case of `O=C(NC1CC1)c1ccc(N2[C@@H]3CC[C@H]2C[C@@H](NC(=O)C2(c4ccc(Cl)cc4)CC2)C3)cc1Cl` [Example 63, 2-chloro-4-[3-endo-({[1-(4-chlorophenyl)cyclopropyl]carbonyl}amino)-8-azabicyclo[3.2.1]oct-8-yl]-N-cyclopropylbenzamide], the IC50 is reported as < 200 nM. For `CC(C)(Oc1ccc(F)cc1C(F)(F)F)C(=O)NC1CC2CCC(C1)N2c1ccc(C(=O)NC2CC2(F)F)cn1` (stereo not drawn) [Example 369, N-(2,2-difluorocyclopropyl)-6-[3-endo-({2-[4-fluoro-2-(trifluoromethyl)phenoxy]-2-methylpropanoyl}amino)-8-azabicyclo[3.2.1]oct-8-yl]pyridine-3-carboxamide], the IC50 was < 200 nM. With `CC(C)(Oc1ccc(Cl)c(C(F)(F)F)c1)C(=O)N[C@H]1C[C@H]2CC[C@@H](C1)N2c1ccc(C(N)=O)cn1` [Example 185] the IC50 was < 200 nM. With `CC(C)(Oc1ccc(Cl)cc1OCCO)C(=O)N[C@H]1C[C@H]2CC[C@@H](C1)N2c1ccc(C(=O)NCC(F)(F)F)cn1` [Example 389, 6-[3-endo-({2-[4-chloro-2-(2-hydroxyethoxy)phenoxy]-2-methylpropanoyl}amino)-8-azabicyclo[3.2.1]oct-8-yl]-N-(2,2,2-trifluoroethyl)pyridine-3-carboxamide] the IC50 was < 200 nM. For `CC(C)(Oc1ccc(Cl)cc1Cl)C(=O)N[C@H]1C[C@H]2CC[C@@H](C1)N2c1ccc(C(=O)O)cn1` [Example 287, 6-[3-endo-({2-[(2,4-dichlorophenyl)oxy]-2-methylpropanoyl}amino)-8-azabicyclo[3.2.1]oct-8-yl]pyridine-3-carboxylic acid], the IC50 was < 200 nM. `CC(C)(Oc1ccc(Cl)c(Cl)c1)C(=O)N[C@H]1C[C@H]2CC[C@@H](C1)N2c1ccc(S(C)(=O)=O)cc1` [Example 206, 2-[(3,4-dichlorophenyl)oxy]-2-methyl-N-{8-[4-(methylsulfonyl)phenyl]-8-azabicyclo[3.2.1]oct-3-endo-yl}propanamide] was tested, and the IC50 was < 2000 nM.
